The assay concerns Plasmodium berghei. Description: Luciferase/luciferin-expressing antifolate-resistant parasites were used to infect a culture of HepG2 cells that were pre-incubated with compounds. Infected hepatocytes emit light due to the luciferase reaction. Assay results are presented as the percent inhibition of light emission compared to control. […]. Format: functional. The conditions noted are these: sporozoite; for IC90: read-out: LUCIFERASE INFECTION ASSAY - IC90.

Structures are written as SMILES.

For orientation: IC50 means the point on the concentration scale where inhibition reaches its midpoint. Broadly, the IC90 is the concentration needed for an effect of 90%. In the case of `COc1ccccc1OCCNC(=O)c1cc(C2CC2)nc2c1cnn2C(C)C`, the IC90 is greater than 10 µM. Further, the IC50 (FFLUC_HILL_SLOPE 16.8, FFLUC_R_SQUARED 0.0713, HEPG2TOX_HILL_SLOPE 2.22, HEPG2TOX_R_SQUARED 0.212, read-out: LUCIFERASE INFECTION ASSAY - IC50) is greater than 10 µM.
For the molecule `O=C(/C(=N/Nc1ccc(Cl)cc1Cl)C(=O)C(F)(F)F)c1cccs1`, the IC90 worked out at 5.87 µM. The IC50 (FFLUC_HILL_SLOPE 16.5, FFLUC_R_SQUARED 0.242, PBLUC_HILL_SLOPE 1.77, PBLUC_R_SQUARED 0.602, read-out: LUCIFERASE INFECTION ASSAY - IC50) is 1.7 µM.
Turning to `N#Cc1c(SCC(=O)c2ccccc2)nc2c(c1-c1cccs1)CCCC2`, the IC90 is greater than 8.45 µM. Besides, for the setting “FFLUC_HILL_SLOPE 16.5, FFLUC_R_SQUARED 0.662, PBLUC_HILL_SLOPE 1.37, PBLUC_R_SQUARED 0.669, read-out: LUCIFERASE INFECTION ASSAY - IC50”, the IC50 was determined as 3.67 µM.
As to `Cc1cc(Oc2ccc(NC(=O)Nc3c(-c4c(Cl)cccc4Cl)noc3C)cn2)cc(C)c1Cl`, the IC90 was greater than 6.37 µM. For the same molecule, for the setting “FFLUC_HILL_SLOPE 16.7, FFLUC_R_SQUARED 0.348, read-out: LUCIFERASE INFECTION ASSAY - IC50”, the half-inhibitory concentration (IC50) was greater than 6.37 µM.
For the molecule `Nc1ccc(NC2=C(Cl)C(=O)c3ccccc3C2=O)cc1`, the IC90 was 5.78 µM. Moreover, for the setting “FFLUC_HILL_SLOPE 16.7, FFLUC_R_SQUARED 0.273, HEPG2TOX_HILL_SLOPE 2.85, HEPG2TOX_R_SQUARED 0.992, PBLUC_HILL_SLOPE 8.6, PBLUC_R_SQUARED 0.505, read-out: LUCIFERASE INFECTION ASSAY - IC50”, the IC50 turned out to be 4.48 µM.
On to `CCc1ccccc1OCC(=O)Nc1cc(Cl)ccc1N1CCN(C)CC1`, for which the IC90 is greater than 10 µM. In addition, the IC50 (FFLUC_HILL_SLOPE 16.4, FFLUC_R_SQUARED 0.269, read-out: LUCIFERASE INFECTION ASSAY - IC50) is greater than 10 µM.
Take `CC(=C(C#N)C#N)c1ccc(Cl)cc1`: the IC90 was greater than 16.3 µM. Also, the 50% inhibitory concentration (IC50) (FFLUC_HILL_SLOPE 16.5, FFLUC_R_SQUARED 0.121, read-out: LUCIFERASE INFECTION ASSAY - IC50) is greater than 16.3 µM.
Consider `Cc1cc(C)cc(C(=O)N(CC2CCCO2)c2nc3ccccc3s2)c1` (stereo not given), for which the IC90 was greater than 10 µM. Further, the IC50 (FFLUC_HILL_SLOPE 16.6, FFLUC_R_SQUARED 0.205, read-out: LUCIFERASE INFECTION ASSAY - IC50) is greater than 10 µM.
On to `Cc1ccccc1OC1=C(Cl)C(=O)c2ccccc2C1=O`, for which the IC90 was found to be 9.86 µM. Further, where the note is “FFLUC_HILL_SLOPE 16.7, FFLUC_R_SQUARED 0.318, HEPG2TOX_HILL_SLOPE 9.14, HEPG2TOX_R_SQUARED 0.751, PBLUC_HILL_SLOPE 4.24, PBLUC_R_SQUARED 0.127, read-out: LUCIFERASE INFECTION ASSAY - IC50”, the IC50 was determined as 5.87 µM.
Regarding `Cc1ccccc1N1C(=O)c2ccccc2C(Cc2ccc(C#N)cc2)(Cc2ccc(C#N)cc2)C1=O`, the IC90 was greater than 10 µM. The IC50 (FFLUC_HILL_SLOPE 16.6, FFLUC_R_SQUARED 0.0411, PBLUC_HILL_SLOPE 0.772, PBLUC_R_SQUARED 0.177, read-out: LUCIFERASE INFECTION ASSAY - IC50) was greater than 10 µM.
Take `C=C(C)C(=O)Oc1cccc(Oc2c(F)c(F)c(-c3c(F)c(F)c(Oc4cccc(OC(=O)C(=C)C)c4)c(F)c3F)c(F)c2F)c1`: the IC90 is greater than 10 µM. The IC50 (FFLUC_HILL_SLOPE 16.5, FFLUC_R_SQUARED 0.83, read-out: LUCIFERASE INFECTION ASSAY - IC50) is greater than 10 µM.
`Cc1nn2c(NCCCn3ccnc3)cc(C(C)(C)C)nc2c1-c1ccccc1`: the IC90 amounted to 3.07 µM. For the same molecule, the IC50 (FFLUC_HILL_SLOPE 16.6, FFLUC_R_SQUARED 0.48, HEPG2TOX_HILL_SLOPE 8.1, HEPG2TOX_R_SQUARED 0.76, PBLUC_HILL_SLOPE 15.5, PBLUC_R_SQUARED 0.267, read-out: LUCIFERASE INFECTION ASSAY - IC50) is 2.66 µM.
Regarding `CC(NCC(=O)N1c2ccc(S(N)(=O)=O)cc2CC1C)C1CC2CCC1C2` (stereo not given), the IC90 worked out at 7.51 µM. Besides, the IC50 (FFLUC_HILL_SLOPE 16.6, FFLUC_R_SQUARED 0.154, PBLUC_HILL_SLOPE 1.1, PBLUC_R_SQUARED 0.764, read-out: LUCIFERASE INFECTION ASSAY - IC50) was determined as 1.03 µM.
Take `Cc1c(C(=O)Nc2ncccc2O)[nH]c2c1C(=O)CCC2`: the IC90 is greater than 10 µM. Further, for the setting “FFLUC_HILL_SLOPE 16.5, FFLUC_R_SQUARED 0.153, HEPG2TOX_HILL_SLOPE 5.63, HEPG2TOX_R_SQUARED 0.429, read-out: LUCIFERASE INFECTION ASSAY - IC50”, the IC50 is greater than 10 µM.
On to `Cn1ccc2cc(-c3cn4c(-c5ccc(CO)cc5)cnc4cn3)ccc21`, for which the IC90 is 0.829 µM. For the same molecule, the IC50 (FFLUC_HILL_SLOPE 16.7, FFLUC_R_SQUARED 0.117, HEPG2TOX_HILL_SLOPE 0.88, HEPG2TOX_R_SQUARED 0.915, PBLUC_HILL_SLOPE 3.4, PBLUC_R_SQUARED 0.717, read-out: LUCIFERASE INFECTION ASSAY - IC50) was determined as 0.435 µM.
Take `CCN(CC)S(=O)(=O)c1ccc(OC(C)C)c(NC(=O)c2cc(C3CC3)nc3c2cnn3C(C)C)c1`: the concentration for an effect of 90% (IC90) was greater than 10 µM. For the same molecule, the IC50 (FFLUC_HILL_SLOPE 16.5, FFLUC_R_SQUARED 0.255, read-out: LUCIFERASE INFECTION ASSAY - IC50) is greater than 10 µM.
With `Cc1cccc(Cn2nc(C(C)(C)C)cc2-c2nnc(SCC(=O)c3ccccc3)o2)c1`, the concentration for an effect of 90% (IC90) was greater than 7.39 µM. Besides, for the setting “FFLUC_HILL_SLOPE 16.7, FFLUC_R_SQUARED 0.464, PBLUC_HILL_SLOPE 10.3, PBLUC_R_SQUARED 0.0963, read-out: LUCIFERASE INFECTION ASSAY - IC50”, the IC50 is greater than 7.39 µM.
Consider `O=C1C=CC(=O)N1c1ccc(Cl)c(Cl)c1`, for which the concentration for an effect of 90% (IC90) is greater than 13.6 µM. Also, for the setting “FFLUC_HILL_SLOPE 16.6, FFLUC_R_SQUARED 0.832, read-out: LUCIFERASE INFECTION ASSAY - IC50”, the IC50 was greater than 13.6 µM.
Consider `Cc1cc(N2CCN(C(=O)c3cc(-c4ccccc4)nc4c3cnn4C(C)C)CC2)nc(C(C)C)n1`, for which the IC90 was greater than 10 µM. Also, under “FFLUC_HILL_SLOPE 16.4, FFLUC_R_SQUARED 0.735, read-out: LUCIFERASE INFECTION ASSAY - IC50”, the concentration for half-maximal inhibition (IC50) was greater than 10 µM.
Take `CCCn1c(NC(=O)Cc2coc3cc(OC)ccc23)nc2ccccc21`: the IC90 is 1.31 µM. Besides, the IC50 (FFLUC_HILL_SLOPE 16.7, FFLUC_R_SQUARED 0.137, HEPG2TOX_HILL_SLOPE 1.66, HEPG2TOX_R_SQUARED 0.728, PBLUC_HILL_SLOPE 12.1, PBLUC_R_SQUARED 0.477, read-out: LUCIFERASE INFECTION ASSAY - IC50) was 1.09 µM.
As to `COc1ccc(CC2CCC(=NOC(=O)c3ccc(C(C)(C)C)cc3)CC2)cc1` (stereo not given), the IC90 was greater than 8.39 µM. Under “FFLUC_HILL_SLOPE 16.8, FFLUC_R_SQUARED 0.295, read-out: LUCIFERASE INFECTION ASSAY - IC50”, the half-maximal inhibitory concentration (IC50) is greater than 8.39 µM.
In the case of `O=C(Nc1ccc(F)c(Cl)c1)Nc1csc(Cc2c(Cl)cccc2Cl)n1`, the IC90 was greater than 7.66 µM. Moreover, the IC50 (FFLUC_HILL_SLOPE 16.6, FFLUC_R_SQUARED 0.437, PBLUC_HILL_SLOPE 14.1, PBLUC_R_SQUARED 0.179, read-out: LUCIFERASE INFECTION ASSAY - IC50) stood at 6.61 µM.
In the case of `Cc1ccc(S(=O)(=O)N2CCN(C(=O)/C=C/c3ccsc3)CC2)cc1`, the 90% effect concentration (IC90) was greater than 10 µM. Moreover, the IC50 (FFLUC_HILL_SLOPE 16.5, FFLUC_R_SQUARED 0.182, read-out: LUCIFERASE INFECTION ASSAY - IC50) was greater than 10 µM.
In the case of `O=C1Nc2cc(Cl)ccc2/C1=C\c1nn(Cc2ccccc2)cc1-c1cccnc1`, the IC90 was greater than 10 µM. The IC50 (FFLUC_HILL_SLOPE 16.7, FFLUC_R_SQUARED 0.641, read-out: LUCIFERASE INFECTION ASSAY - IC50) was greater than 10 µM.
On to `C/C(=N\NC(=S)NC(C)(C)C)c1cc(Cl)cc(Cl)c1O`, for which the 90% effect concentration (IC90) was greater than 9.87 µM. The IC50 (FFLUC_HILL_SLOPE 16.6, FFLUC_R_SQUARED 0.277, read-out: LUCIFERASE INFECTION ASSAY - IC50) was greater than 9.87 µM.
For `CCCc1cc(=O)n(-c2ccc(Cl)cc2)[nH]1`, the IC90 is 5.8 µM. For the setting “FFLUC_HILL_SLOPE 16.5, FFLUC_R_SQUARED 0.266, HEPG2TOX_HILL_SLOPE 6.52, HEPG2TOX_R_SQUARED 0.85, PBLUC_HILL_SLOPE 14.3, PBLUC_R_SQUARED 0.712, read-out: LUCIFERASE INFECTION ASSAY - IC50”, the IC50 was determined as 4.97 µM.
Take `O=C(NNC(=O)c1ccccn1)c1ccc(C2SCCCS2)cc1`: the IC90 is greater than 10 µM. The half-maximal inhibitory concentration (IC50) (FFLUC_HILL_SLOPE 16.5, FFLUC_R_SQUARED 0.524, PBLUC_HILL_SLOPE 17.5, PBLUC_R_SQUARED 0.078, read-out: LUCIFERASE INFECTION ASSAY - IC50) stood at 9.07 µM.
`COc1ccc(OCc2cc(C(=O)NCc3ccccc3)c(C)o2)cc1`: the IC90 is greater than 10 µM. Besides, for the setting “FFLUC_HILL_SLOPE 16.5, FFLUC_R_SQUARED 0.199, HEPG2TOX_HILL_SLOPE 9.38, HEPG2TOX_R_SQUARED 0.316, read-out: LUCIFERASE INFECTION ASSAY - IC50”, the IC50 was greater than 10 µM.
In the case of `Cc1nc2ncnn2c(N2CCc3ccccc3C2)c1Cl`, the IC90 amounted to 6.09 µM. Also, the IC50 (FFLUC_HILL_SLOPE 16.4, FFLUC_R_SQUARED 0.0433, HEPG2TOX_HILL_SLOPE 1.21, HEPG2TOX_R_SQUARED 0.855, PBLUC_HILL_SLOPE 2.02, PBLUC_R_SQUARED 0.689, read-out: LUCIFERASE INFECTION ASSAY - IC50) was 2.05 µM.
As to `COc1ccc(N2C(=O)C=CC2=O)cc1`, the IC90 is greater than 16.2 µM. Moreover, the IC50 (FFLUC_HILL_SLOPE 16.4, FFLUC_R_SQUARED 0.242, read-out: LUCIFERASE INFECTION ASSAY - IC50) is greater than 16.2 µM.
